In brackets after ≈: the same amount, converted by molar mass. Activity calls are given as the source filed them. The rule behind the calls is not given here.
Key:
HEK293 = experiment: Cytotoxicity against human HEK293 cells reduction in cell viability at 74 ug/ml incubated for 24 hrs by resazurin cell viability assay; assay type: toxicity, cell-based; settings: hek293, 24 h, at 74 µg/mL
Staphylococcus aureus [1] = experiment: Bactericidal activity against Staphylococcus aureus ATCC 700699 persisters assessed as log reduction in colony forming unit at 64 times MIC after 4 hrs by colony counting method; assay type: functional, organism-based
Staphylococcus aureus [2] = experiment: Bactericidal activity against Staphylococcus aureus ATCC 700699 assessed as bacteria elimination at 4 times MIC and measured after 6 hrs by time-kill assay; assay type: functional
Enterococcus faecalis [3] = experiment: Antibacterial activity against antibiotic susceptible Enterococcus faecalis ATCC 29212 assessed as inhibition of bacterial growth by CLSI protocol based broth microdilution method; assay type: functional
[4] = tested on: Staphylococcus epidermidis; experiment: Antibacterial activity against antibiotic resistant Staphylococcus epidermidis ATCC 700296 assessed as inhibition of bacterial growth by CLSI protocol based broth microdilution method; assay type: functional
Staphylococcus aureus [5] = experiment: Antibacterial activity against antibiotic resistant Staphylococcus aureus ATCC 700699 assessed as inhibition of bacterial growth by CLSI protocol based broth microdilution method; assay type: functional
Staphylococcus aureus [6] = experiment: Antibacterial activity against antibiotic susceptible Staphylococcus aureus ATCC 25923 assessed as inhibition of bacterial growth by CLSI protocol based broth microdilution method; assay type: functional
[7] = Cytotoxicity against human HEK293 cells reduction in cell viability incubated for 24 hrs by resazurin cell viability assay; assay type: toxicity, cell-based
Enterococcus faecalis [8] = experiment: Anti-biofilm activity against Enterococcus faecalis ATCC 29212 assessed as biofilm eradication at 3.125 to 12.5 ug/ml incubated for 24 hrs by Calgary biofilm device assay; assay type: functional, organism-based; settings: dose 3.125-12.5 µg/ml
Enterococcus faecalis [9] = experiment: Anti-biofilm activity against Enterococcus faecalis ATCC 29212 assessed as minimum bactericidal concentration incubated for 24 hrs by Calgary biofilm device assay; settings: ATCC 29212, 24 h
Enterococcus faecalis [10] = experiment: Inhibition of biofilm formation in Enterococcus faecalis ATCC 29212 at 6.25 ug/ml incubated for 24 hrs by Calgary biofilm device assay; assay type: functional; settings: dose 6.25 µg/ml
Bacillus subtilis = experiment: Antibacterial activity against antibiotic resistant Bacillus subtilis ATCC 6623 assessed as inhibition of bacterial growth by CLSI protocol based broth microdilution method; assay type: functional
Staphylococcus aureus [11] = experiment: Antibacterial activity against antibiotic resistant Staphylococcus aureus ATCC 33592 assessed as inhibition of bacterial growth by CLSI protocol based broth microdilution method; assay type: functional
Staphylococcus aureus [12] = experiment: Antibacterial activity against Staphylococcus aureus ATCC 25923 assessed as minimum bactericidal concentration incubated for 24 hrs by Calgary biofilm device assay; settings: ATCC 25923, 24 h
Enterococcus faecium [13] = experiment: Antibacterial activity against vancomycin resistant Enterococcus faecium ATCC 700221 assessed as inhibition of bacterial growth by CLSI protocol based broth microdilution method; assay type: functional
Enterococcus faecalis [14] = experiment: Anti-biofilm activity against Enterococcus faecalis ATCC 29212 assessed as eradication of biofilm formation incubated for 24 hrs by Calgary biofilm device assay; assay type: functional
Staphylococcus aureus [15] = experiment: Inhibition of biofilm formation in Staphylococcus aureus ATCC 25923 at 12.5 ug/ml incubated for 24 hrs by Calgary biofilm device assay; assay type: functional
Enterococcus faecalis [16] = experiment: Inhibition of biofilm formation in Enterococcus faecalis ATCC 29212 at 12.5 ug/ml incubated for 24 hrs by Calgary biofilm device assay; assay type: functional
Staphylococcus aureus [17] = experiment: Antibacterial activity against antibiotic resistant Staphylococcus aureus ATCC 33591 assessed as inhibition of bacterial growth by CLSI protocol based broth microdilution method; assay type: functional
Staphylococcus aureus [18] = experiment: Antibacterial activity against antibiotic resistant Staphylococcus aureus BAA-2312 assessed as inhibition of bacterial growth by CLSI protocol based broth microdilution method; assay type: functional
Staphylococcus aureus [19] = experiment: Inhibition of biofilm formation in Staphylococcus aureus ATCC 25923 at 3.125 to 12.5 ug/ml incubated for 24 hrs by Calgary biofilm device assay; assay type: functional, organism-based; settings: dose 3.125-12.5 µg/ml, DDE = dose-dependent effect
Staphylococcus aureus [20] = experiment: Anti-biofilm activity against Staphylococcus aureus ATCC 25923 assessed as eradication of biofilm formation incubated for 24 hrs by Calgary biofilm device assay; assay type: functional
Staphylococcus aureus [21] = experiment: Bactericidal activity against Staphylococcus aureus ATCC 700699 persisters assessed as log reduction in colony forming unit at 16 times MIC after 4 hrs by colony counting method; assay type: functional
Staphylococcus aureus [22] = experiment: Inhibition of protein synthesis in Staphylococcus aureus ATCC 29213 at 8 times MIC preincubated for 30 mins followed by [3H]-leucine and measured after 40 mins by [3H]-leucine incorporation based beta scintillation counter analysis; assay type: functional; settings: time 70.0 min
Staphylococcus aureus [23] = experiment: Bactericidal activity against Staphylococcus aureus ATCC 700699 persisters assessed as log reduction in colony forming unit at 32 times MIC measured for 4 hrs by time kill assay; assay type: functional
Staphylococcus aureus [24] = experiment: Bactericidal activity against Staphylococcus aureus ATCC 700699 persisters assessed as log reduction in colony forming unit at 16 times MIC measured for 4 hrs by time kill assay; assay type: functional
Staphylococcus aureus [25] = experiment: Bactericidal activity against Staphylococcus aureus ATCC 700699 persisters assessed as log reduction in colony forming unit at 2 to 32 times MIC measured for 4 hrs by time kill assay; assay type: functional, organism-based; settings: DDE = dose-dependent effect
Staphylococcus aureus [26] = experiment: Inhibition of RNA synthesis in Staphylococcus aureus ATCC 29213 at 8 times MIC preincubated for 30 mins followed by [3H]-uridine and measured after 30 mins by [3H]-uridine incorporation based beta scintillation counter analysis; assay type: functional; settings: time 60 min; 1 h
Staphylococcus aureus [27] = experiment: Inhibition of lipid synthesis in Staphylococcus aureus ATCC 29213 at 8 times MIC preincubated for 30 mins followed by [3H]-glycerol and measured after 50 mins by [3H]-glycerol incorporation based beta scintillation counter analysis; assay type: functional; settings: time 80 min; 1.333 h
Staphylococcus aureus [28] = experiment: Inhibition of DNA synthesis in Staphylococcus aureus ATCC 29213 at 8 times MIC preincubated for 30 mins followed by [3H]-thymidine and measured after 30 mins by [3H]-thymidine incorporation based beta scintillation counter analysis; assay type: functional; settings: time 60 min; 1 h
Enterococcus faecium [29] = experiment: Antibacterial activity against Enterococcus faecium clinical isolate 1088168 assessed as inhibition of bacterial growth by CLSI protocol based broth microdilution method; assay type: functional
Enterococcus faecalis [30] = experiment: Antibacterial activity against Enterococcus faecalis clinical isolate 1091563 assessed as inhibition of bacterial growth by CLSI protocol based broth microdilution method; assay type: functional
Enterococcus faecium [31] = experiment: Antibacterial activity against Enterococcus faecium clinical isolate 1091282 assessed as inhibition of bacterial growth by CLSI protocol based broth microdilution method; assay type: functional
Enterococcus faecalis [32] = experiment: Antibacterial activity against Enterococcus faecalis clinical isolate 1094112 assessed as inhibition of bacterial growth by CLSI protocol based broth microdilution method; assay type: functional
Enterococcus faecium [33] = experiment: Antibacterial activity against Enterococcus faecium clinical isolate 1088925 assessed as inhibition of bacterial growth by CLSI protocol based broth microdilution method; assay type: functional
Staphylococcus aureus [34] = experiment: Bactericidal activity against Staphylococcus aureus ATCC 700699 assessed as bacteria elimination at 4 times MIC and measured after 10 hrs by time-kill assay; assay type: functional, organism-based
Enterococcus faecalis [35] = experiment: Antibacterial activity against Enterococcus faecalis clinical isolate 1100440 assessed as inhibition of bacterial growth by CLSI protocol based broth microdilution method; assay type: functional
Enterococcus faecium [36] = experiment: Antibacterial activity against Enterococcus faecium clinical isolate 1088228 assessed as inhibition of bacterial growth by CLSI protocol based broth microdilution method; assay type: functional
Enterococcus faecalis [37] = experiment: Antibacterial activity against Enterococcus faecalis clinical isolate 1091720 assessed as inhibition of bacterial growth by CLSI protocol based broth microdilution method; assay type: functional
Enterococcus faecium [38] = experiment: Antibacterial activity against Enterococcus faecium clinical isolate 1089544 assessed as inhibition of bacterial growth by CLSI protocol based broth microdilution method; assay type: functional
Enterococcus faecalis [39] = experiment: Antibacterial activity against Enterococcus faecalis clinical isolate 1088051 assessed as inhibition of bacterial growth by CLSI protocol based broth microdilution method; assay type: functional

CC/C(=C(\c1ccccc1)c1ccc(OCCN(C)C)cc1)c1ccccc1 [TAMOXIFEN]
Activity (HEK293): 100%

GENTAMICIN
log(activity) (Staphylococcus aureus [1]): 1 | Activity (Staphylococcus aureus [2]): > 99.9%

Cc1cc(NCc2cn(-c3ccc(C(F)(F)F)cc3)nc2-c2ccc(C(=O)O)cc2)ccc1Br
MIC (Enterococcus faecalis [3]): 6.25 µg/mL (≈ 11.8 µM) | MIC [4]: 12.5 µg/mL (≈ 23.6 µM) | MIC (Staphylococcus aureus [5]): 1.56 µg/mL (≈ 2.94 µM) | MIC (Staphylococcus aureus [6]): 3.12 µg/mL (≈ 5.88 µM) | IC50 at 24 h [7]: > 12 µg/mL | Activity (Enterococcus faecalis [8]): Active | MBC (Enterococcus faecalis [9]): 12.5 µg/mL (≈ 23.6 µM) | inhibition (Enterococcus faecalis [10]): Active | MIC (Bacillus subtilis): 1.56 µg/mL (≈ 2.94 µM) | MIC (Staphylococcus aureus [11]): 3.12 µg/mL (≈ 5.88 µM) | MBC (Staphylococcus aureus [12]): 12.5 µg/mL (≈ 23.6 µM) | MIC (Enterococcus faecium [13]): 3.12 µg/mL (≈ 5.88 µM) | MBEC (Enterococcus faecalis [14]): 25 µg/mL | inhibition at 12.5 µg/mL (Staphylococcus aureus [15]): > 90% | inhibition (Enterococcus faecalis [16]; dose 12.5 µg/ml): Active | MIC (Staphylococcus aureus [17]): 6.25 µg/mL (≈ 11.8 µM) | MIC (Staphylococcus aureus [18]): 3.12 µg/mL (≈ 5.88 µM) | inhibition (Staphylococcus aureus [19]): Dde | MBEC (Staphylococcus aureus [20]): 12.5 µg/mL | log(activity) (Staphylococcus aureus [21]): >2 | Activity (Staphylococcus aureus [2]): >99.9%

CC(=O)NC[C@H]1CN(c2ccc(N3CCOCC3)c(F)c2)C(=O)O1
inhibition (Staphylococcus aureus [22]): 70.7%

O=C(O)c1ccc(-c2nn(-c3ccc(C(F)(F)F)cc3)cc2CNc2ccc(Oc3ccccc3)cc2)cc1
MIC (Enterococcus faecalis [3]): 3.12 µg/mL (≈ 5.89 µM) | MIC [4]: 3.12 µg/mL (≈ 5.89 µM) | log(activity) (Staphylococcus aureus [23]): 3 | MIC (Staphylococcus aureus [5]): 1.56 µg/mL (≈ 2.95 µM) | MIC (Staphylococcus aureus [6]): 1.56 µg/mL (≈ 2.95 µM) | IC50 at 24 h [7]: 23.5 µg/mL (≈ 44.4 µM) | Activity (Enterococcus faecalis [8]): Active | MBC (Enterococcus faecalis [9]): 12.5 µg/mL (≈ 23.6 µM) | MIC (Bacillus subtilis): 1.56 µg/mL (≈ 2.95 µM) | log(activity) (Staphylococcus aureus [24]): 3 | MIC (Staphylococcus aureus [11]): 1.56 µg/mL (≈ 2.95 µM) | MBC (Staphylococcus aureus [12]): 3.12 µg/mL (≈ 5.89 µM) | MIC (Enterococcus faecium [13]): 1.56 µg/mL (≈ 2.95 µM) | MBEC (Enterococcus faecalis [14]): 12.5 µg/mL | Activity (Staphylococcus aureus [25]): Dde | inhibition at 12.5 µg/mL (Enterococcus faecalis [16]): 100% | MIC (Staphylococcus aureus [17]): 3.12 µg/mL (≈ 5.89 µM) | MIC (Staphylococcus aureus [18]): 3.12 µg/mL (≈ 5.89 µM) | inhibition (Staphylococcus aureus [19]): Dde | MBEC (Staphylococcus aureus [20]): 6.25 µg/mL | log(activity) (Staphylococcus aureus [21]): >2 | Activity (Staphylococcus aureus [2]): >99.9%

CO[C@H]1/C=C/O[C@@]2(C)Oc3c(C)c(O)c4c(O)c(c(/C=N/N5CCN(C)CC5)c(O)c4c3C2=O)NC(=O)/C(C)=C\C=C\[C@H](C)[C@H](O)[C@@H](C)[C@@H](O)[C@@H](C)[C@H](OC(C)=O)[C@@H]1C [RIFAMPIN]
inhibition (INH) (Staphylococcus aureus [26]): 76.3%

C/C=C/C/C=C/CCC(=O)[C@H]1O[C@H]1C(N)=O [CERULENIN]
inhibition (INH) (Staphylococcus aureus [27]): 71.9%

O=C(O)c1cn(C2CC2)c2cc(N3CCNCC3)c(F)cc2c1=O [CIPROFLOXACIN]
inhibition (INH) (Staphylococcus aureus [28]): 86.2%

CN[C@H](CC(C)C)C(=O)N[C@H]1C(=O)N[C@@H](CC(N)=O)C(=O)N[C@H]2C(=O)N[C@H]3C(=O)N[C@H](C(=O)N[C@H](C(=O)O)c4cc(O)cc(O)c4-c4cc3ccc4O)[C@H](O)c3ccc(c(Cl)c3)Oc3cc2cc(c3O[C@@H]2O[C@H](CO)[C@@H](O)[C@H](O)[C@H]2O[C@H]2C[C@](C)(N)[C@H](O)[C@H](C)O2)Oc2ccc(cc2Cl)[C@H]1O [VANCOMYCIN]
MIC (Enterococcus faecalis [3]): 3.12 µg/mL (≈ 2.15 µM) | MIC [4]: 3.12 µg/mL (≈ 2.15 µM) | MIC (Staphylococcus aureus [5]): 3.12 µg/mL (≈ 2.15 µM) | MIC (Enterococcus faecium [29]): > 32 µg/mL | MIC (Staphylococcus aureus [6]): 0.78 µg/mL (≈ 0.538 µM) | MBC (Enterococcus faecalis [9]): 25 µg/mL (≈ 17.3 µM) | MIC (Enterococcus faecalis [30]): > 32 µg/mL | MIC (Enterococcus faecium [31]): > 32 µg/mL | MIC (Enterococcus faecalis [32]): > 32 µg/mL | MIC (Enterococcus faecium [33]): > 32 µg/mL | MIC (Bacillus subtilis): 0.39 µg/mL (≈ 0.269 µM) | MBC (Staphylococcus aureus [12]): 6.25 µg/mL (≈ 4.31 µM) | MIC (Enterococcus faecium [13]): > 50 µg/mL | Activity (Staphylococcus aureus [34]): Active | MIC (Enterococcus faecalis [35]): > 32 µg/mL | MIC (Enterococcus faecium [36]): > 32 µg/mL | MBEC (Enterococcus faecalis [14]): >50 µg/mL | MIC (Enterococcus faecalis [37]): > 32 µg/mL | MIC (Enterococcus faecium [38]): > 32 µg/mL | MIC (Staphylococcus aureus [18]): 0.78 µg/mL (≈ 0.538 µM) | MBEC (Staphylococcus aureus [20]; Staphylococcus aureus, ATCC 25923): > 50 µg/mL | MIC (Enterococcus faecalis [39]): > 32 µg/mL
